Test results from patent US11661431B2, “Thienopyrrole compounds” (Gilead Sciences, Inc., priority 2021, dated 2023).
≈ marks a conversion by molar mass, not a printed value. Like-named read-outs stand apart in the source and are kept apart here.

Tests used:
TLR8 = TLR8 (Homo sapiens (Human), UniProt Q9NR97); test: TLR8 human peripheral blood mononuclear cell (PBMC) cell-based assay (Compound A as agonist; TNFα and IL12p40 readout); conditions: human PBMCs, TLR8 agonist Compound A at 800 nM, 6 hours, antagonist potency; read-out: TLR-8 EC50
Chain of TLR8 (Q9NR97 27-1041): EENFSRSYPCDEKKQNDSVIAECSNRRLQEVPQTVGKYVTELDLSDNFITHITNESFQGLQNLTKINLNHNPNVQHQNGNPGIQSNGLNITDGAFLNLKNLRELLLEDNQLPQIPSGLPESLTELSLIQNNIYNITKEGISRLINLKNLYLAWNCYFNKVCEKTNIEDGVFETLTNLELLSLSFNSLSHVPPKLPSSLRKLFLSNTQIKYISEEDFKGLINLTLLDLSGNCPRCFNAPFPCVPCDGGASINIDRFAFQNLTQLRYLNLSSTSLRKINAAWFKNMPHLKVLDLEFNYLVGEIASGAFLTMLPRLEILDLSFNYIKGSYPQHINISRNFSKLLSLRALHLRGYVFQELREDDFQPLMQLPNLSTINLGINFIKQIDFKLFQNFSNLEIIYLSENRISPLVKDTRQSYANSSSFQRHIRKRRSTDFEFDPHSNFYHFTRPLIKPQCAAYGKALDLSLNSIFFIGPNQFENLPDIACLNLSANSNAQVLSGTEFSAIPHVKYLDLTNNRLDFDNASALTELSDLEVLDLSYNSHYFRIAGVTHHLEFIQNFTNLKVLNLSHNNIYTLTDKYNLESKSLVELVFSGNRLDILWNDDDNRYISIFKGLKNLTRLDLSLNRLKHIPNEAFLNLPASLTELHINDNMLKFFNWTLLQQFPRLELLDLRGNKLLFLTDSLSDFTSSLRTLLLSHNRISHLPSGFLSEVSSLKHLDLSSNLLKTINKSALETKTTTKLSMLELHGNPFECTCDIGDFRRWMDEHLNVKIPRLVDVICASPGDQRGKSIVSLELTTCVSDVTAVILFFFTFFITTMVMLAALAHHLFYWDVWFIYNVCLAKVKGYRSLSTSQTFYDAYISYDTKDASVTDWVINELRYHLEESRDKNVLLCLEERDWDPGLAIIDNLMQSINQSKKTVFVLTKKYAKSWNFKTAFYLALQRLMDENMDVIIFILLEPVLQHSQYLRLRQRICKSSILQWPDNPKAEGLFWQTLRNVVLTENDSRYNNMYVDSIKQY

[1] = Kinetic solubility at pH 7.4; conditions: 1×PBS buffer (pH 7.4), 22.8 °C, pH 7.4, aqueous buffer, kinetic from dmso stock
Experimental: Kinetic Solubility at pH 7.4
The final DMSO Concentration was 1.0% and maximum theoretical compound concentration is 100 μM. The filter plate was sealed. […] The collection plate was sealed for analysis.
Filtrates were injected into the nitrogen detector for quantification on Analiza's Automated Discovery Workstation. The results are reported in μg/ml.
The filtrates were quantified with respect to this calibration curve. The calculated solubility values were corrected for background nitrogen present in the DMSO, and the media used to prepare the samples.
The 1×PBS buffer (pH 7.4) was prepared by adding 50 mL of phosphate buffered saline solution 10×, PBS (Fisher Bioreagent part number BP399-500) to approximately 450 mL HPLC grade H2O. The volume of the solution was then adjusted to 500 mL for a total dilution factor of 1:10 and a final PBS concentration of 1×. The pH of the final solution was measured and found to be 7.4.
Each compound tested was analyzed as a trifluoroacetate salt.

TLR7 = TLR7 (Homo sapiens (Human), UniProt Q9NYK1); test: TLR7 human peripheral blood mononuclear cell (PBMC) cell-based assay (GS-986 as agonist; IL-6 and IFNα readout); conditions: human PBMCs, TLR7 agonist GS-986 at 400 nM, 6 hours, antagonist potency; read-out: TLR-7 EC50
Chain of TLR7 (Q9NYK1 27-1049): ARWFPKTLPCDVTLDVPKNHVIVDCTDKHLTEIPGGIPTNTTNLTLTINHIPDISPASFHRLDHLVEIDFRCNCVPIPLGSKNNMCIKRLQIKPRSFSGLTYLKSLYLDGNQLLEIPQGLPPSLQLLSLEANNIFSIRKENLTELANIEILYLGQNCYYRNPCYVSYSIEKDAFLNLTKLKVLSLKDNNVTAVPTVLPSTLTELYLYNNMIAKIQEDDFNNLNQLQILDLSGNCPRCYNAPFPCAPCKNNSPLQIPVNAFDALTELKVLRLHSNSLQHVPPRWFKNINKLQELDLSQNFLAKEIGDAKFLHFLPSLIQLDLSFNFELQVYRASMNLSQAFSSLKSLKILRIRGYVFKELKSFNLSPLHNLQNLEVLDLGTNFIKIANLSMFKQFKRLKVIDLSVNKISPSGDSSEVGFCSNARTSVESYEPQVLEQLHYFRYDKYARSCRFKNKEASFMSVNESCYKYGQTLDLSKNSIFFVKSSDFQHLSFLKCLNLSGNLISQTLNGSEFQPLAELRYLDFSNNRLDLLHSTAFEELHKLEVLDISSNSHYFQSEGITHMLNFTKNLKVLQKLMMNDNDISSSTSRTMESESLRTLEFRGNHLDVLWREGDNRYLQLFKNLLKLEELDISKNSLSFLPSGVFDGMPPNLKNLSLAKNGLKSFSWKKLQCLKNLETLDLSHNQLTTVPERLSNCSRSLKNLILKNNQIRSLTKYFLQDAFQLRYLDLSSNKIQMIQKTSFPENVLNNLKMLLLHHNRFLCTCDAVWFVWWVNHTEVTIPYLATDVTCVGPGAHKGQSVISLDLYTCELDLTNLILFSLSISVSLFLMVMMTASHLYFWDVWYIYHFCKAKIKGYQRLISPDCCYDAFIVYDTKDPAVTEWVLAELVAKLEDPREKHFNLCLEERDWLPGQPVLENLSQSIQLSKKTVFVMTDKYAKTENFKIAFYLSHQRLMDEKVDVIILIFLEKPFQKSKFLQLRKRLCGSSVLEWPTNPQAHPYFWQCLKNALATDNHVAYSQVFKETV
In short: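 IL-6 and IFNα released into supernatant were quantified by electrochemiluminescence immunoassay. Before that, human PBMCs at 100,000 per well received a 10-point antagonist titration for 1 h, then TLR7 agonist for 6 more hours, all at 37 °C, 5% CO2.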

[2] = tested on: cryopreserved hepatocytes; test: Human hepatic stability in cryopreserved hepatocytes; conditions: 1×10^6 cells/mL, aliquots at 0, 1, 3 and 6 hours, LC-MS/MS
Experimental: Each tested compound was incubated in suspensions of cryopreserved hepatocytes at a final concentration of 1 μM. Vials containing cryopreserved hepatocytes were removed from liquid nitrogen and immediately immersed in a 37° C. water bath. The vials were swirled gently until the contents had thawed. They were then immediately emptied into 48 mL of pre-warmed HT medium in a 50 mL conical tube. Cells remaining in the vial were resuspended with 1.0 mL of pre-warmed HT medium and added to the conical tube. The tube was capped and then gently inverted several times to re-suspend the hepatocytes. The cell suspension was centrifuged at 500×g for 10 minutes at room temperature and the supernatant discarded. The cell pellet was loosened by gently swirling the centrifuge tube. Non-supplemented KHB medium was added to obtain the appropriate target cell density.
For incubations, aliquots of hepatocyte suspension (250 mL at a concentration of 2×10^6 cells/mL) were added to 250 mL of 2 mM of each tested compound in KHB, in duplicate wells in a 24-well plate. Final concentration in the incubations were 1×10^6 cells/mL and 1 mM of each tested compound. […] A cell-free control was also tested in parallel with the incubations. The incubations were carried out with gentle shaking in a 37° C. incubator under a humid atmosphere of 95% air/5% CO2 (v/v). Aliquots (100 mL) were removed after 0, 1, 3, and 6 hours and added to 200 mL IS/Q. The samples were then placed on a shaker for 10 min followed by centrifugation at 3000×g for 20 min. The supernatant was transferred to a new plate and diluted with 100 μL of water to reduce the organic solvent content and then placed on a shaker for 10 mins. Samples were injected and analyzed using LC-MS/MS.

[3] = target: MATE2-K (multidrug and toxin extrusion protein 2) (Homo sapiens (Human), UniProt Q86VL8); test: MATE2-K IC50 assay (14C-metformin uptake in transfected MDCK-II cells); type: in vitro ADME
Chain of MATE2-K (multidrug and toxin extrusion protein 2) (Q86VL8 other isoform, or with tags, fused parts or gaps, species assumed): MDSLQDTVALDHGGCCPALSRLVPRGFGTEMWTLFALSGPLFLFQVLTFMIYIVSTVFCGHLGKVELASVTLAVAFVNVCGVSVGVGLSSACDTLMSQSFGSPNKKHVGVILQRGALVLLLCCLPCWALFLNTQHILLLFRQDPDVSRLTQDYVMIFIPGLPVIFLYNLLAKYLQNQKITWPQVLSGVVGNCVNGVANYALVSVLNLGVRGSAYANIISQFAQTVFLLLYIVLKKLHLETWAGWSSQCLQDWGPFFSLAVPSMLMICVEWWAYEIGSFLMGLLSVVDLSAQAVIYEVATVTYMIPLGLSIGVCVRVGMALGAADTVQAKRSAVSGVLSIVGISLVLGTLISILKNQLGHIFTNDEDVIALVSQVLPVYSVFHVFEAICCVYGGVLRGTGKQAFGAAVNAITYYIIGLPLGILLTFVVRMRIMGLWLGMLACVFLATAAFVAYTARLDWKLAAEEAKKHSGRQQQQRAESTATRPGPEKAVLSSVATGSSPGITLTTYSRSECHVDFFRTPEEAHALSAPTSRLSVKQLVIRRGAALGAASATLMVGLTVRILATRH
Experimental: MATE2-K (multidrug and toxin extrusion protein 2) is expressed in the apical membrane in the kidney and mediates the elimination of compounds to urine. MDCK-II cells were maintained in DMEM with low glucose and 10% FBS. Cells passages up to 40 were seeded at 60K±10K cells/well on 96-well, transwell membrane plates approximately 24 hours before transfection. Transport assays were carried out approximately 48 hours after transfection. […]. The assay plate was then placed in a 37° C. incubator with orbital shaking at approximately 60 RPM for the pre-incubation time of 15 minutes. […]. The assay plate was incubated at 37° C. with orbital shaking at approximately 60 RPM for the incubation time of 5 minutes. At end of the 5-minute incubation, 15 μL of dosing solution was removed from each well containing the compound being tested and measured using LC/MS/MS for dose recovery assessment. The assay wells were then washed four times with ice cold PBS. 60 μL cell extraction solution was added to each well and the plate was incubated at 37° C. with orbital shaking at approximately 60 RPM for the 15 minutes. After this incubation, 30 μL was removed from each well, added to 200 μL scintillation fluid, and counted on a 1450 Microbeta (Perkin-Elmer) to measure the probe substrate uptake. Inhibition potential of the compound being tested was calculated by dividing the transporter-mediated uptake rate in presence of the compound being tested or the reference inhibitor by the transporter-mediated uptake rate in presence of vehicle control and fitted to a sigmoidal function to determine the IC50 values.

[4] = transfected MDCK-II cells, 10 μM 14C-metformin probe substrate, read-out: MATE2-K IC50

Structure (SMILES)	EC50 (TLR8) [nM]	solubility kinetic at 24 h [1] [µg/mL]	EC50 (TLR7) [nM]	Predicted Clearance [2] [mL/min/kg]	IC50 [3] [nM]	IC50 [3, 4] [nM]
Cc1c(-c2[nH]c3sc(C4CCN(CC(N)=O)CC4)c(C)c3c2C(C)C)cn2ncnc2c1C [Example 67]	2.08	16.8 (≈ 36.2 µM)	0.35	2.33	6200	
Cc1c(-c2[nH]c3sc([C@@H]4C[C@@H]5C[C@H]4CN5C(C)C(N)=O)c(C)c3c2C(C)C)cn2ncnc2c1C (single isomer, unassigned) [Example 100]	0.71	23.5 (≈ 47.9 µM)	0.32			9700
CNC(=O)CN1C[C@@H]2C[C@H]1C[C@H]2c1sc2[nH]c(-c3cn4ncnc4c(C)c3C)c(C(C)C)c2c1C [Example 82]	0.17		0.37		> 14500	
Cc1c(-c2[nH]c3ccc(C4CCN(CC(N)=O)CC4)cc3c2C(C)C)cn2ncnc2c1C [Example A-1, reference compound]		< 1		4.5		300
Cc1c(-c2[nH]c3sc(C4CCN(C(=O)[C@H]5CCCN5)CC4)c(C)c3c2C(C)C)cn2ncnc2c1C [Example 98]	4.48	24.9 (≈ 49.3 µM)	0.05	1.83		
Cc1c(-c2[nH]c3sc([C@@H]4C[C@@H]5C[C@H]4CN5CC(N)=O)c(C)c3c2C(C)C)cn2ncnc2c1C [Example 79, 2-((1S,4R,5R)-5-(5-(7,8-dimethyl-[1,2,4]triazolo[1,5-a]pyridin-6-yl)-4 isopropyl-3-methyl-6H-thieno[2,3-b]pyrrol-2-yl)-2-azabicyclo[2.2.1]heptan-2-yl)acetamide]	0.23	21.5 (≈ 45.1 µM)	0.12	4.33	8100	
Cc1c(-c2[nH]c3sc([C@H]4C[C@H]5C[C@@H]4CN5CC(N)=O)c(C)c3c2C(C)C)cn2ncnc2c1C [Example 84]	0.81		0.13	8.83		
COc1cc(-c2[nH]c3cc(C4CCNCC4)sc3c2C(C)C)cn2ncnc12 [Example B-1, reference compound]	2.55	22 (≈ 55.6 µM)	0.3	4.33	1100	
Cc1c(-c2[nH]c3sc(C4CCN(C(=O)[C@H]5COCCN5)CC4)c(C)c3c2C(C)C)cn2ncnc2c1C [Example 56]	2.46	26.5 (≈ 50.9 µM)	0.24	4.17		7700
Cc1c(-c2[nH]c3sc([C@@H]4C[C@@H]5C[C@H]4CN5)c(C)c3c2C(C)C)cn2ncnc2c1C [Example 72, 2-((1S,4R,5R)-2-azabicyclo[2.2.1]heptan-5-yl)-5-(7,8-dimethyl-[1,2,4]triazolo[1,5-a]pyridin-6-yl)-4-isopropyl-3-methyl-6H-thieno[2,3-b]pyrrole]	0.11		0.1			
Cc1c(-c2[nH]c3sc(C45CCN(CC(N)=O)CC4C5)c(C)c3c2C(C)C)cn2ncnc2c1C (stereo not drawn) [Example 93]	18.4		1.36			
Cc1cc(-c2[nH]c3sc(C4CCN(C(=O)[C@H]5COCCN5)CC4)cc3c2C(C)C)cn2ncnc12 [Example 57]	15.5		0.27			
Cc1c(-c2[nH]c3sc(-c4ccc(C5CCN(CC(N)=O)CC5)cc4)c(C)c3c2C(C)C)cn2ncnc2c1C [Example 113]	9.8		0.54			
Cc1c(C2CCN(C(=O)CN3CCOCC3)CC2)sc2[nH]c(-c3cc(C)c4ncnn4c3)c(C(C)C)c12 [Example 50]	35.9		1.76			
Cc1c(C2CCN(C(=O)C34COC(CN3)C4)CC2)sc2[nH]c(-c3cc(C)c4ncnn4c3)c(C(C)C)c12 (stereo not drawn) [Example 55]	16.6		0.23			
Cc1c(C2CC3(CCCNC3)C2)sc2[nH]c(-c3cc(C)c4ncnn4c3)c(C(C)C)c12 (stereo not drawn) [Example 137]	1.71		0.73			
Cc1c(-c2cnc3c(c2)CNCC3)sc2[nH]c(-c3cc(C)c4ncnn4c3)c(C(C)C)c12 [Example 21]	1.25		1.08			
Cc1c(-c2[nH]c3sc(C4COC5(CCN(CC(N)=O)CC5)C4)c(C)c3c2C(C)C)cn2ncnc2c1C (stereo not drawn) [Example 80]	15.2		2.15			
Cc1c(C2CCN(C(C)C(N)=O)CC2)sc2[nH]c(-c3cc(C)c4ncnn4c3)c(C(C)C)c12 (stereo not drawn) [Example 27]	8.43		0.25			
Cc1c(C2CCN(C(=O)[C@@H]3COCCN3)CC2)sc2[nH]c(-c3cc(C)c4ncnn4c3)c(C(C)C)c12 [Example 36]	20.8		0.54			
Cc1c(C2CC3(CCN(CC(N)=O)CC3)C2)sc2[nH]c(-c3cc(C)c4ncnn4c3)c(C(C)C)c12 [Example 124]	3.22		0.3			
Cc1c(-c2[nH]c3sc(C4CCN(C(=O)[C@@H]5CCCN5)CC4)c(C)c3c2C(C)C)cn2ncnc2c1C [Example 99]	5.96		0.43			
Cc1c(-c2[nH]c3sc([C@@H]4C[C@@H]5C[C@H]4CN5CC(N)=O)cc3c2C(C)C)cn2ncnc2c1C [Example 97]	1.09	22.8 (≈ 49.3 µM)	0.31	13.5		

Second part, led by results:

EC50 (TLR8) [nM]	solubility kinetic at 24 h [1] [µg/mL]	EC50 (TLR7) [nM]	Predicted Clearance [2] [mL/min/kg]	Structure (SMILES)	IC50 [3] [nM]	IC50 [3, 4] [nM]
3.2	1 (≈ 2.22 µM)	0.99	2.67	Cc1c(-c2[nH]c3sc(C4CCN(CC(N)=O)CC4)cc3c2C(C)C)cn2ncnc2c1C [Example 221]		
2.82		0.07	10.7	Cc1c(-c2[nH]c3sc([C@H]4C[C@@H]5C[C@H]4CN5CC(N)=O)c(C)c3c2C(C)C)cn2ncnc2c1C [Example 183]		
0.35	27.7 (≈ 59.7 µM)	0.06	3.67	Cc1c(-c2[nH]c3sc([C@@H]4C[C@@H]5C[C@H]4CN5CCO)c(C)c3c2C(C)C)cn2ncnc2c1C [Example 229]		
< 0.05	21.1 (≈ 41 µM)	< 0.05	4.33	Cc1c(-c2[nH]c3sc([C@@H]4C[C@@H]5C[C@H]4CN5Cc4cn(C)nn4)c(C)c3c2C(C)C)cn2ncnc2c1C [Example 175]		
3.64		0.38		Cc1c(-c2[nH]c3sc(C4C[C@@H]5C[C@H]4CC5N4CC5(C4)CS(=O)(=O)C5)c(C)c3c2C(C)C)cn2ncnc2c1C (stereo partly drawn) [Example 254]		
0.41		0.13		Cc1c(-c2[nH]c3sc([C@@H]4C[C@@H]5C[C@H]4CN5CC#N)c(C)c3c2C(C)C)cn2ncnc2c1C [Example 165]		
8.77		< 0.05		Cc1c([C@@H]2C[C@H]3CC[C@@H]2CN3CC(N)=O)sc2[nH]c(-c3cc(C)c4ncnn4c3)c(C(C)C)c12 (single isomer, unassigned) [Example 191]		
9.8		< 0.05		Cc1c(C2CCN(S(=O)(=O)N3CCNCC3)CC2)sc2[nH]c(-c3cc(C)c4ncnn4c3)c(C(C)C)c12 [Example 156]		
15.9		0.51		Cc1c(-c2[nH]c3sc([C@@H]4C[C@@H]5C[C@H]4CN5C(=O)[C@H]4C[C@H](F)CN4)c(C)c3c2C(C)C)cn2ncnc2c1C [Example 148]		
3.4		4.47		Cc1c(-c2[nH]c3sc([C@H]4C[C@@H]5CC[C@H]4CN5CCS(C)(=O)=O)c(C)c3c2C(C)C)cn2ncnc2c1C (single isomer, unassigned) [Example 214]		
0.88		0.45		Cc1c(-c2[nH]c3sc([C@@H]4C[C@@H]5C[C@H]4CN5CCS(C)(=O)=O)cc3c2C(C)C)cn2ncnc2c1C [Example 218]		
1.01		1.24		Cc1c(-c2[nH]c3sc([C@@H]4C[C@@H]5C[C@H]4CN5CC(=O)NC[C@@H](F)C(C)(C)O)c(C)c3c2C(C)C)cn2ncnc2c1C [Example 273]		
3.45		0.91		Cc1c(C2CC3(CCCN3CC(N)=O)C2)sc2[nH]c(-c3cc(C)c4ncnn4c3)c(C(C)C)c12 (stereo not drawn) [Example 140]		
8.16		0.13		Cc1c(C2CCNCC2)sc2[nH]c(-c3cc(C)c4nnnn4c3)c(C(C)C)c12 [Example 251]		
